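Assay format: 96-well plates, 48-hour exposure. GI50 marks 50% less growth. The concentration for full growth arrest is given as TGI.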

Holding throughout (test): inhibition of tumour cell growth, NCI panel, 48 h
Assay [1] relates to K-562 leukemia.
For assay [2], the system named is 786-0 renal.
Assay [3] relates to OVCAR-3 ovarian.
Assay [4] has as its system NCI-H23 lung.
Assay [5] relates to SF-539 CNS.
The test system of assay [6] is NCI-H460 lung.
Assay [7] has as its system SN12C renal.
For assay [8], the system named is SF-295 CNS.
Assay [9] has as its system HL-60(TB) leukemia.
Assay [10] deals with HCC-2998 colon.

Take `O=C(N/C(=C\c1ccc(F)cc1)c1nc2ccccc2[nH]1)c1ccccc1`: the TGI in assay [1], in assay [2], in assay [3], in assay [4], in [5] and in assay [6] was above 100 µM each time. This compound also came in with a TGI in [7] above 100 µM.

Turning to `CCSc1nc(N)c2cnn(CC)c2n1`, the GI50 in [1] is 9.11 µM; in [8] it was 8.02 µM; in assay [2], 26.5 µM; in assay [9], 2.33 µM; in assay [3] it was 4.59 µM; in assay [4], 10.3 µM. The GI50 in assay [5] was 6.67 µM; in assay [6], 23.9 µM; in assay [7], 4.12 µM. Besides, the TGI in [1] was above 100 µM; in assay [8] it was above 100 µM; in assay [2] it was above 100 µM; in [9], 32.5 µM; in [3], 42.6 µM; in [4], 22 µM. Moreover, the TGI came to 27.3 µM in assay [5], 78 µM in assay [6] and 26.1 µM in assay [7].

Consider `Cc1ccc([N+]2=NC(c3ccccc3)=NN(c3ccccc3)C2)cc1`, for which the TGI in [1], in assay [8], in assay [2], in [9], in assay [3] and in [4] was above 100 µM in each case. The TGI in assay [10], in [6] and in assay [7] was above 100 µM each time.

`CN(C)Cc1cc(C(C)(C)C)cc(CN(C)C)c1O`: the TGI in assay [1], in [8], in assay [2], in assay [3], in assay [4] and in [5] was above 100 µM throughout. The TGI in [10] was 52.2 µM; in [6], above 100 µM; in [7], above 100 µM.

As for `COc1cc(CCc2ccncc2)cc(OC)c1OC`, the TGI in [1], in [8], in [2], in assay [9], in [3] and in assay [4] was above 100 µM each time. The TGI in assay [5], in assay [6] and in assay [7] was above 100 µM each time.

With `N#CC(C#N)C(c1ccccc1)c1ccccc1`, the TGI in [1], in assay [8], in assay [2], in assay [9], in assay [3] and in assay [5] was above 100 µM throughout. Also, the TGI in assay [10], in [6] and in assay [7] was above 100 µM throughout.

For the compound `CCOC(=O)C(=O)Nc1nc2ccc(C)cc2s1`, the TGI in [1], in assay [2], in assay [3], in assay [4], in assay [5] and in assay [10] was above 100 µM in each case. The TGI in assay [6] and in assay [7] was above 100 µM throughout.

As for `CCN(CC)CCNc1ccc([N+](=O)[O-])c2nc3ccc(OC)cc3c(N)c12`, the TGI stood at 0.665 µM in assay [1]; 2.96 µM in assay [8]; 1.66 µM in [2]; 0.246 µM in assay [9]; 3.55 µM in assay [3]; 3.53 µM in assay [4]. The TGI worked out at 3.27 µM in assay [5], 2.67 µM in assay [6] and 2.83 µM in assay [7].

For the compound `N#Cc1cc2c(cc1Cl)SC(=Nc1ccccc1)N(S(=O)(=O)c1ccc(Br)s1)S2(=O)=O`, the GI50 in assay [1] was 14.5 µM; in assay [8], 30.4 µM; in [2], 16.7 µM; in assay [3] it was 15.9 µM; in [4], 19.3 µM; in [5] it was 21.6 µM. In addition, the results for the GI50 in assay [10], in [6] and in assay [7] were 14.7 µM, 23.1 µM and 24 µM, respectively. Further, the TGI in [1] was determined as 43.8 µM; in assay [8] it was 89.5 µM; in assay [2], 32.4 µM; in [3] it was 32 µM; in assay [4] it was 38 µM; in assay [5] it was 39 µM. In addition, the TGI in assay [10] was 30.8 µM; in assay [6], 53 µM; in assay [7], 49.6 µM.

`COC1CC(n2cc(F)c(N)nc2=O)OC1CO` (configuration not stated): the TGI in assay [1], in assay [8], in [2], in [9], in [3] and in assay [4] was above 100 µM in each case. The TGI in [10], in [6] and in [7] was above 100 µM each time.

Regarding `Nc1ccn(C2CC3OCC3O2)c(=O)n1` (configuration not stated), the TGI in assay [1], in [8], in assay [2], in assay [9], in assay [3] and in assay [4] was above 100 µM each time. Moreover, the TGI in assay [5], in assay [6] and in [7] was above 100 µM in each case.

For `COC(=O)C(=O)C(C#N)c1c(Cl)cccc1Cl` (configuration not stated), the TGI in [1], in assay [8], in assay [2], in assay [9], in [3] and in [4] was above 100 µM throughout. In addition, the TGI in assay [5], in [6] and in assay [7] was above 100 µM throughout.

Turning to `CCN1CCC(O)(/C=C/c2ccccc2)C(C(=O)/C=C/c2ccccc2)C1` (configuration not stated), the TGI in assay [8] was 9.73 µM; in assay [2] it was 3.32 µM; in [9] it was 4.08 µM; in assay [3] it was 8.9 µM; in assay [4], 10.3 µM; in [5], 3.76 µM. For the same compound, the TGI in assay [10] worked out at 4.01 µM; in assay [6], 4.03 µM; in [7] it was 3.7 µM.

Values taken from PubChem BioAssay (NCI).
